Laboratory results reported in ChEMBL document CHEMBL4196231, “Peptidomimetics for Targeting Protein-Protein Interactions between DOT1L and MLL Oncofusion Proteins AF9 and ENL” (ACS Med Chem Lett, 2018).
Square brackets hold non-standard residues; d marks the D form. Peptide text beside a SMILES is read from it. * marks the point of attachment. Biotinyl(3aR,4S,6aS) = O=C1N[C@H]2[C@H](CCCCC(=O)*)SC[C@H]2N1; Ala(cPent) = N[C@@H](CC1CCCC1)C(=O)O; Dap = NC[C@H](N)C(=O)O; Ahx = NCCCCCC(=O)O

Tests used:
Protein AF-9 [1] = biological target: T1, Protein AF-9 (Homo sapiens, UniProt P42568); experiment: Binding affinity to MBP-tagged AF9 (unknown origin) (487 to 568 residues) expressed in Escherichia coli BL21(DE3) by Bio-layer interferometry
T1 sequence (P42568 whole entry): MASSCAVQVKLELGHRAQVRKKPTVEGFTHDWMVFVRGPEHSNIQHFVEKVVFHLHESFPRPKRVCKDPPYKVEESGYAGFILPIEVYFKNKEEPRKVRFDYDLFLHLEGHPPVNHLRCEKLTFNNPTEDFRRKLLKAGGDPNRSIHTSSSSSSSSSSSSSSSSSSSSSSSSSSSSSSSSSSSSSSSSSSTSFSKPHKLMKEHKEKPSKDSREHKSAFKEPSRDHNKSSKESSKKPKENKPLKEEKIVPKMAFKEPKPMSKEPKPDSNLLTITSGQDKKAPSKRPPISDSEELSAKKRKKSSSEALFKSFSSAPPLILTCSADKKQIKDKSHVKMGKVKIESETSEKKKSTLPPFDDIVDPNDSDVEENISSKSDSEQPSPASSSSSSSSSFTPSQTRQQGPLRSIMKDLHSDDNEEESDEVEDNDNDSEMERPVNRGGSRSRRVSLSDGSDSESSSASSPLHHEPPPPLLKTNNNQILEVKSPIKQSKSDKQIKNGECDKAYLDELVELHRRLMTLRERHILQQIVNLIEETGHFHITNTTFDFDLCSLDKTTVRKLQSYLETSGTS

Protein AF-9 [2] = biological target: T1, Protein AF-9; experiment: Displacement of N-Flu-DOT1L from MBP-tagged AF9 (unknown origin) (487 to 568 residues) expressed in Escherichia coli BL21(DE3) measured after 3 hrs by fluorescence polarization assay
Protein ENL [3] = biological target: T2, Protein ENL (Homo sapiens, UniProt Q03111); experiment: Binding affinity to MBP-tagged ENL (unknown origin) (489 to 559 residues) expressed in Escherichia coli BL21(DE3) by Bio-layer interferometry
T2 sequence (Q03111 whole entry): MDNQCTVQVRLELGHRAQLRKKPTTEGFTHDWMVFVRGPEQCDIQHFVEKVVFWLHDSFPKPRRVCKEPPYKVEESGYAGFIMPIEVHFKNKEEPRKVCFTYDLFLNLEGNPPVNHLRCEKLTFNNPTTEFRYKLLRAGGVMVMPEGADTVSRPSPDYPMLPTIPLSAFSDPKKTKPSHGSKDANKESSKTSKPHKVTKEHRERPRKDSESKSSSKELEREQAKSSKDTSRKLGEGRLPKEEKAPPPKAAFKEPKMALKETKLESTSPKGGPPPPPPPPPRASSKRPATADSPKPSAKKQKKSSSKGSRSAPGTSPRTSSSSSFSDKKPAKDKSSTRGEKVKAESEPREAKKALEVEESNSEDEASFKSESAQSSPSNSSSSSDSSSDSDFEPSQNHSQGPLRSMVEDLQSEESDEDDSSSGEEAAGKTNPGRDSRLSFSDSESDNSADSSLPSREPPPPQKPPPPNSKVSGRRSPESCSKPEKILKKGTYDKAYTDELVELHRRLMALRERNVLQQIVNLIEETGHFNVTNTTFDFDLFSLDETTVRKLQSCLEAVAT

Protein ENL [4] = biological target: T2, Protein ENL; experiment: Displacement of N-Flu-DOT1L from MBP-tagged ENL (unknown origin) (489 to 559 residues) expressed in Escherichia coli BL21(DE3) measured after 3 hrs by fluorescence polarization assay

Row | Molecule | Kd (Protein AF-9 [1]) | Ki (Protein AF-9 [2]) | Kd (Protein ENL [3]) | Ki (Protein ENL [4]) | IC50 (Protein AF-9 [2]) | IC50 (Protein ENL [4])
1 | CC(C)C[C@H](NC(=O)[C@@H]1CCCN1C(=O)[C@H](CC1CCCC1)NC(=O)[C@H](CN)NC(=O)[C@@H](NC(=O)[C@@H]1CCCN1C(=O)[C@H](CC(C)C)NC(=O)CCCCCNC(=O)CCCC[C@@H]1SC[C@H]2NC(=O)N[C@@H]12)C(C)C)C(=O)N(C)C ({Biotinyl(3aR,4S,6aS)-Ahx}-LPV[Dap][Ala(cPent)]PL-NMe2) | 15 nM | 10 nM | 57 nM | 63 nM |  | 
2 | Ac-LPISIPL-NH2 |  | 160 nM |  | 3370 nM | 1040 nM | 10300 nM
3 | Ac-LPISIPLSTV-NH2 |  | 20 nM |  | 150 nM | 140 nM | 630 nM
4 | Ac-LPVSIPL-NH2 |  | 160 nM |  | 1430 nM | 1020 nM | 4790 nM
